SMILES strings stand for the structures. “Also recorded” adds a separate entry of the source.

For one assay, the target named is T1, CLK1 (Homo sapiens, UniProt P49759).
T1 construct: Enzyme activity was measured with off-chip mobility shift assay using purified CLK protein
The assay can be described thus: Inhibition confirmation test for CLK (off-chip mobility shift assay). Type of assay: biochemical. The conditions noted are these: at 1 μM; read-out: CLK1 inhibitory activity. As for the experimental part:
Enzyme activity was measured with off-chip mobility shift assay using purified CLK protein. […] The enzyme reaction was performed at room temperature for 1 hour, and the reaction was terminated by adding QuickScout Screening Assist MSA (Carna Biosciences, Inc.). A substrate peptide and a phosphorylated peptide in the enzyme reaction solution were separated and quantified using the LabChip system (Perkin-Elmer, Waltham, MA, USA), and inhibition of CLK was evaluated by calculating a product ratio using the following formula, the substrate peptide peak height (S), and the phosphorylated peptide peak height (P).
(§1) (P/(P+S)) • P: product-derived peak • S: substrate-derived peak

The target in the next assay is T2, CLK3 (Homo sapiens, UniProt P49761).
T2 construct: Enzyme activity was measured with off-chip mobility shift assay using purified CLK protein
The description is as above. Type of assay: biochemical. The conditions noted are these: at 1 μM; read-out: CLK3 inhibitory activity. As to the method: (§2) Enzyme activity was measured with off-chip mobility shift assay using purified CLK protein. DYRKtide-F peptide (1 μM) was used as a substrate, and a composition of a reaction solution used was as follows (20 mM HEPES (pH7.5), 0.01% Triton X-100, 1 mM DT7, 1% DMSO, and ATP (10 μM for CLK1, 150 μM for CLK2, and 75 μM for CLK3)). The enzyme reaction was performed at room temperature for 1 hour, and the reaction was terminated by adding QuickScout Screening Assist MSA (Carna Biosciences, Inc.). A substrate peptide and a phosphorylated peptide in the enzyme reaction solution were separated and quantified using the LabChip system (Perkin-Elmer, Waltham, MA, USA), and inhibition of CLK was evaluated by calculating a product ratio using the following formula, the substrate peptide peak height (S), and the phosphorylated peptide peak height (P).
as §1

A further assay addresses T3, CLK2 (Homo sapiens, UniProt P49760).
T3 construct: Enzyme activity was measured with off-chip mobility shift assay using purified CLK protein
The description is as above. Type of assay: biochemical. The settings on record: at 1 μM; read-out: CLK2 inhibitory activity. As to the method: as §2, §1

Assay [1] concerns OAS1 rs10774671 A-allele splicing. The assay can be described thus: RT-PCR for OAS1 alternative splicing profile in Calu-3 (A/A allele) cells. Type of assay: cell-based, human. The settings on record: for yield of the p44a splice form (RT-PCR) / yield of the p44a splice form compared with other compound treatment: Calu-3, 10 μM, 18 hours (Example 2).

T1 sequence (P49759 whole entry): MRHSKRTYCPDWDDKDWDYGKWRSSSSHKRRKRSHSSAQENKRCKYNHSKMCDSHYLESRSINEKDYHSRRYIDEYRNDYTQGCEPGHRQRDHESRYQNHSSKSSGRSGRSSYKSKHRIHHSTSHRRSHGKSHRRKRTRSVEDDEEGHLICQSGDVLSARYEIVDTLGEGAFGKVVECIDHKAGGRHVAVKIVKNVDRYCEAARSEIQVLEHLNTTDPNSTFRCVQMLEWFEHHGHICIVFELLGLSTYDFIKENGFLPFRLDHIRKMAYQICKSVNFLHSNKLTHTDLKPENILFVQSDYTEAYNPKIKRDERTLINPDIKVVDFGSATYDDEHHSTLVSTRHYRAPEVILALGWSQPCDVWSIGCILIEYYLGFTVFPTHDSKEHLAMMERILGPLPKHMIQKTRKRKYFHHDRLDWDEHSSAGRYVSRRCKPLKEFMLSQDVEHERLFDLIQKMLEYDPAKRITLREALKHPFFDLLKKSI
T2 sequence (P49761 whole entry): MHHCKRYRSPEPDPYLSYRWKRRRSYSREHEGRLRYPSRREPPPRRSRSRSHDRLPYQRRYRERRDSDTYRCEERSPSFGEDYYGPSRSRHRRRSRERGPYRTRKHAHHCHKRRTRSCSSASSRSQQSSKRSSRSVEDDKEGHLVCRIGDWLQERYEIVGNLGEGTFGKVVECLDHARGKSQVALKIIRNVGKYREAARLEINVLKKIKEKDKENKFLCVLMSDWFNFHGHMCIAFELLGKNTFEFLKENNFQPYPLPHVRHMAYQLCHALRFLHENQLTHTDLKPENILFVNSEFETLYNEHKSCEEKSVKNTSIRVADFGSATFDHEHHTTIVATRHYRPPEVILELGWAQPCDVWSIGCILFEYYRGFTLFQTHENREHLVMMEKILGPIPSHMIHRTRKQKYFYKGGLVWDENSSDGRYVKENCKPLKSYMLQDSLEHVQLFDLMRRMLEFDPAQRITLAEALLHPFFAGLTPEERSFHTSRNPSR
T3 sequence (P49760 whole entry): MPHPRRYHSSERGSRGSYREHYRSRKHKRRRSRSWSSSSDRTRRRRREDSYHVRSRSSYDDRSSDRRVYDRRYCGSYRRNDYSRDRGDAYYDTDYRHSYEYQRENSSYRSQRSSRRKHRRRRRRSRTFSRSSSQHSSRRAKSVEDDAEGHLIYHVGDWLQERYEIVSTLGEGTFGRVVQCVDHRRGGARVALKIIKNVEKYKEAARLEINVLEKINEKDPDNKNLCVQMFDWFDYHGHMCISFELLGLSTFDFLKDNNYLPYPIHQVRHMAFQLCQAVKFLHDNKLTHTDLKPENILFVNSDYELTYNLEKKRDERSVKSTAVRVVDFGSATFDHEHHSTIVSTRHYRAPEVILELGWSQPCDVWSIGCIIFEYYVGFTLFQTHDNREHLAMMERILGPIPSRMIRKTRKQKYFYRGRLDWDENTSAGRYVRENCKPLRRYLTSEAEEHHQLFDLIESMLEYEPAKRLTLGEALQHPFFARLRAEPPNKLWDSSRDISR

`c1cncc(-c2ccc3[nH]ncc3c2)c1` [compound 2, 5-pyridin-3-yl-1H-indazole]: the inhibition at 1 µM was found to be 98.4% at CLK1, 21.6% at CLK3 and 90.5% on CLK2. Besides, the “yield of the p44a splice form (RT-PCR)” value in assay [1] is on record as “increased the yield of the p44a splice form”. In addition, in assay [1], the “yield of the p44a splice form compared with other compound treatment” value is reported as “higher than that in the compound 1 treatment”.

Regarding `CCN1/C(=C/C(C)=O)Sc2ccc3occc3c21` [compound 3, 1-(1-ethylfuro[3,2-e][1,3]benzothiazol-2-ylidene)propan-2-one], the inhibition at 1 µM on CLK1 was 102%; on CLK3, 32.9%; at CLK2, 96.5%. Besides, the “yield of the p44a splice form (RT-PCR)” value in assay [1] is given as “increased the yield of the p44a splice form”. For the same compound, the “yield of the p44a splice form compared with other compound treatment” value in assay [1] is “higher than that in the compound 1 treatment; also recorded: higher than that in the compound 2 treatment”.

As to `CCN1/C(=C/C(C)=O)Sc2ccc(OC)cc21` [compound 4, 1-(3-ethyl-5-methoxy-1,3-benzothiazol-2-ylidene)propan-2-one, reference compound], in assay [1] (Calu-3, 10 μM or 30 μM, 18 hours (Example 3)), the “yield of p44a splice form (RT-PCR)” value is listed as “increased the yield of p44a splice form”.

The values above are taken from patent US20240358684A1, “METHOD FOR ENHANCING INNATE IMMUNE RESPONSE” (Kyoto University, priority 2021, published 2024).
